From patent US4528393A, “Derivatives having expectorant activity, the procedure for their preparation and the pharmaceutical compositions which contain them” (Magis Farmaceutici S.R.L., priority 1983, dated 1985) come the findings set out here.

Data set [1] in a line: Acute toxicity in the rat (DL50, Litchfield and Wilcoxon method). The following applies: in vivo. The protocol:
(§1) where R is as defined above, in the presence of an alkaline carbonate and of a catalyst, to obtain the corresponding formula (I) compound, as defined above, which, optionally, is salified. The new formula (I) compounds and their pharmaceutically acceptable salts, which form the object of this invention, have expectorant characteristics which are very useful for therapeutic applications. […] The peak level in the blood is reached 20-40 minutes after oral administration. This determines higher concentrations of active principle. With dogs, the half-life of the new derivatives in the blood is from 25-30 hours. It is also to be underlined that the new compounds are stable in both the stomach and the intestinal tract, hydrolizing after being absorbed. The complete reliability of the new compounds was determined by evaluating their acute toxicity. Acute toxicity was studies in the mouse, rat and guinea pig, comparing with ambroxol hydrochloride. The DL50 values were calculated by following the Litchfield and Wilcoxon method (Pharm. Exp. Therap. 1949, 96,99).

Data set [2] can be described thus: Acute toxicity in the guinea pig (DL50, Litchfield and Wilcoxon method). The note with it: in vivo. On the procedure:
as §1

A short description of data set [3]: Acute toxicity in the mouse (DL50, Litchfield and Wilcoxon method). Format: in vivo. The note with it: in vivo. On the procedure: as §1
The test system of the next data set is mouse. Described as above. Format: in vivo. The note with it: os. The protocol: as §1

The structures appear in SMILES notation.

In general, LD50 refers to the dose at which mortality reaches 50%. For the compound `Nc1c(Br)cc(Br)cc1CN[C@H]1CC[C@H](O)CC1` [Ambroxol Hydrochlorate, N-(2-amino-3,5-dibromobenzyl)-trans-4-amino-cyclohexanol, reference compound], the LD50 is 380 mg/kg in data set [1] (ip); 13400 mg/kg in data set [1] (po, os); 280 mg/kg in data set [2] (ip); 1180 mg/kg in data set [2] (po, os); 268 mg/kg in data set [3] (ip); 138 mg/kg in data set [3] (iv). In the data set with mouse, the DL50 was 2750 mg/kg.

For `COc1ccccc1OCC(=O)O[C@H]1CC[C@H](NCc2cc(Br)cc(Br)c2N)CC1` [E/6001, N-(2-amino-3,5-dibromobenzyl)-trans-4-amino-1-(guaiacolglycolyl)-cyclohexane], the LD50 in data set [1] (ip) came out at 532 mg/kg; in data set [1] (po, os), 18700 mg/kg; in data set [2] (ip), 390 mg/kg; in data set [2] (po, os) it was 1650 mg/kg; in data set [3] (ip) it was 375 mg/kg; in data set [3] (iv) it was 194 mg/kg. This compound also displayed an LD50 in data set [3] (po, os) of 3850 mg/kg.

With `COc1cc(C)ccc1OCC(=O)O[C@H]1CC[C@H](NCc2cc(Br)cc(Br)c2N)CC1` [E/6002], the LD50 was 550 mg/kg in data set [1] (ip); 19600 mg/kg in data set [1] (po, os); 400 mg/kg in data set [2] (ip); 1700 mg/kg in data set [2] (po, os); 390 mg/kg in data set [3] (ip); 201 mg/kg in data set [3] (iv). The same compound returned an LD50 in data set [3] (po, os) of 4000 mg/kg.

Turning to `Cc1cccc(OCC(=O)O[C@H]2CC[C@H](NCc3cc(Br)cc(Br)c3N)CC2)c1` [E/6003, N-(2-amino-3,5-dibromobenzyl)-trans-4-amino-1-(m-cresolglycolyl)cyclohexane], the LD50 is 510 mg/kg in data set [1] (ip); 18000 mg/kg in data set [1] (po, os); 380 mg/kg in data set [2] (ip); 1600 mg/kg in data set [2] (po, os); 360 mg/kg in data set [3] (ip); 187 mg/kg in data set [3] (iv). For the same compound, the LD50 in data set [3] (po, os) was 3700 mg/kg.

As to `Cc1ccccc1OCC(=O)O[C@H]1CC[C@H](NCc2cc(Br)cc(Br)c2N)CC1` [E/6004], the LD50 in data set [1] (ip) worked out at 500 mg/kg; in data set [1] (po, os), 18000 mg/kg; in data set [2] (ip), 375 mg/kg; in data set [2] (po, os), 1610 mg/kg; in data set [3] (ip) it was 365 mg/kg; in data set [3] (iv), 187 mg/kg. In data set [3] (po, os), this compound gave an LD50 of 3700 mg/kg.

Consider `Cc1ccc(OCC(=O)O[C@H]2CC[C@H](NCc3cc(Br)cc(Br)c3N)CC2)cc1` [E/6005], for which the LD50 in data set [1] (ip) was determined as 500 mg/kg; in data set [1] (po, os) it was 17800 mg/kg; in data set [2] (ip), 380 mg/kg; in data set [2] (po, os) it was 1600 mg/kg; in data set [3] (ip), 360 mg/kg; in data set [3] (iv), 180 mg/kg. In data set [3] (po, os), this compound showed an LD50 of 3700 mg/kg.

With `Cc1ccc(C(C)C)c(OCC(=O)O[C@H]2CC[C@H](NCc3cc(Br)cc(Br)c3N)CC2)c1` [E/6006, N-(2-amino-3,5-dibromobenzyl)-trans-4-amino-1-(thymolglycolyl)cyclohexane], the LD50 in data set [1] (ip) came out at 540 mg/kg; in data set [1] (po, os), 19000 mg/kg; in data set [2] (ip) it was 400 mg/kg; in data set [2] (po, os) it was 1680 mg/kg; in data set [3] (ip), 380 mg/kg; in data set [3] (iv), 197 mg/kg. For the same compound, the LD50 in data set [3] (po, os) was found to be 3900 mg/kg.

`Cc1ccc(C(C)C)cc1OCC(=O)O[C@H]1CC[C@H](NCc2cc(Br)cc(Br)c2N)CC1` [E/6007, N-(2-amino-3,5-dibromobenzyl)-trans-4-amino-1-(carvacrolglycolyl)cyclohexane]: the LD50 in data set [1] (ip) came to 530 mg/kg; in data set [1] (po, os), 18500 mg/kg; in data set [2] (ip), 410 mg/kg; in data set [2] (po, os), 1700 mg/kg; in data set [3] (ip), 390 mg/kg; in data set [3] (iv), 190 mg/kg. Besides, the LD50 in data set [3] (po, os) turned out to be 3900 mg/kg.
